Results on 3 compounds are retold here after patent US12258331B2, “Pyrimidine derivative and preparation process and use thereof” (Guangdong Lewwin Pharmaceutical Research Institute Co., Ltd., priority 2018, dated 2025).

Data set [1] in a line: Pharmacokinetic properties after intravenous injection and intragastric administration. It is filed as in vivo, mice. As to the method:
Shanghai Medicilon Bio-pharmaceutical Co., LTD was commissioned to research pharmacokinetic properties of the novel pyrimidine derivatives (R)-14, (R)-5b, and Tepotinib in mice. The specific processes are: An appropriate amount of the compounds (R)-14, (R)-5b and Tepotinib were accurately weighed and dissolved in a solution containing 2% Solutol and 98% 100 mM sodium acetate to obtain a clear dosing solution at a concentration of 2 mg/mL for intravenous administration. An appropriate amount of the compounds (R)-14, (R)-5b were accurately weighed and dissolved in 5% Solutol and 95% saline to obtain a clear dosing solution at a concentration of 5 mg/mL. An appropriate amount of Tepotinib was accurately weighed and dissolved in 5% Solutol, 5% DMSO and 90% saline, for oral administration and injection. Blood was collected from the test […] via jugular vein puncture, about 0.3 mL for per sample, and using heparin sodium as the anticoagulant. The time points for blood sampling were as below (including intravenous injection and oral administration): before administration, 5 min, 15 min, 30 min, 1 h, 2 h, 4 h, 8 h and 24 h post administration. After collection, blood samples were placed on ice, and plasma was separated by centrifugation within 30 minutes (centrifugation conditions: 8000 rpm, 6 minutes, 2-8° C.). The collected plasma was stored at −80° C. before analysis. Plasma samples were all analyzed qualitatively and quantitatively by LC-MS/MS. The dosage and ways for administration were intravenous injection (IV, 2 mg/kg) and intragastric administration (PO, 5 mg/kg) respectively, with the pharmacokinetic data shown in Table 3.

Data set [2] is described as follows: Metabolic stability in rat liver microsomes. Conditions: 37° C. On the procedure:
Firstly, a SD rat (200-300 g) was fasted for 12 hours, and then infused rapidly with normal saline. Liver was taken out from the rat, from which liver microsomes were extracted at 0-4° C., ready for use after calibrating the concentration of liver microsomes. At 37° C., liver microsomes were incubated in combination with a certain concentration of compounds and auxiliary reagents for a period of time. The reaction was then quenched with acetonitrile.

[3] abbreviates: Sprague-Dawley, mouse, in vivo, iv, 2 mg/kg.
Setting [4] is: Sprague-Dawley, mouse, in vivo, po, 5 mg/kg.

As to `C[C@H](c1cccc(-c2ncc(OCC3CCN(C)CC3)cn2)c1)n1nc(-c2cccc(C#N)c2)ccc1=O` [(R)-5b], in data set [1] (setting [3]), the “AUC0-∞” value came to 2143.91 ng·h/mL, the CL came out at 15.548 mL/min/kg and the T1/2 was 4.23 h. In addition, the “AUC0-∞” value in data set [1] (setting [4]) amounted to 4580.23 ng·h/mL.
On to `CN1CCC(COc2cnc(-c3cccc(Cn4nc(-c5cccc(C#N)c5)ccc4=O)c3)nc2)CC1` [Tepotinib], for which, in data set [1] (IV 2 mg/kg), the “AUC0-∞” value came to 562.74 ng·h/mL, the CL amounted to 59.2338 mL/min/kg, the T1/2 is reported as 1.79 h and the Vz was found to be 9.17868 L/kg. In data set [1] (PO 5 mg/kg), the “AUC0-∞” value came out at 981.69 ng·h/mL, the peak concentration (Cmax) is listed as 211.23 ng/mL and the Tmax was 1 h. Also, the “F % (bioavailability)” value in data set [1] (PO 5 mg/kg vs IV 2 mg/kg) amounted to 67.77%. In data set [2], the “T1/2 (metabolic half-life in liver microsomes)” value stood at 0.345 h.
Turning to `[2H]C([2H])([2H])C([2H])(c1cccc(-c2ncc(OCC3CCN(C)CC3)cn2)c1)n1nc(-c2cccc(C#N)c2)ccc1=O` (stereo in doubt) [(R)-14], in data set [1] (setting [3]), the “AUC0-∞” value was 2441.64 ng·h/mL, the CL stood at 13.652 mL/min/kg and the T1/2 was 4.48 h. Also, in data set [1] (setting [4]), the “AUC0-∞” value worked out at 6309.37 ng·h/mL and the Tmax was 4 h.

For orientation: Vz means a proportionality between amount in the body and measured concentration, not a real space. As usually defined, the Cmax is the highest concentration seen after dosing. The Tmax is the time at which the peak concentration occurs.
